Results: patent US5942502A, “Method of treating diseases resulting from calcium metabolism disorders” (priority 1998, dated 1999)
“Also recorded” adds a separate entry of the source. Where two headings read alike, the source gives them in different places.

Legend:
[1] = cited from earlier work
[2] = in vivo; cited from earlier work
[3] = Acute toxicity (LD50), single dose; type: in vivo, rat; details: rat, in vivo; single (acute) dose, male rats, at 14 days
Source text: LD50 data represent the dose administered resulting in the death of 50% of the test group.

[4] = cited from earlier work; remark: listed apart in the source
female beagle dogs = assay: Chronic dosing toxicity, three months oral; type: in vivo, dog (beagle); details: 0.3 mg/kg orally each day for three months
Procedure: With respect to chronic dosing, a group of six female beagle dogs were given 0.3 mg/kg of either ST-630 or 1α-hydroxyvitamin D3 orally each day for three months.

Ovariectomized rats = assay: Ovariectomized rat model: serum Ca and P, femur dry weight, ash weight and breaking load; type: in vivo, Female Fisher rats; details: for Serum Pi / Breaking load (femur) / Serum Ca / Ash weight (femur) / Dry weight (femur): three times a week for 23 weeks, Mean ± SD; for Serum Pi: OVX 2.6 ± 0.4; for Breaking load (femur): OVX 9.0 ± 0.9; for Serum Ca: OVX 9.7 ± 0.2; for Ash weight (femur): OVX 285 ± 19; for Dry weight (femur): OVX 431 ± 26
Source text: Female Fisher rats, 9-10 months old, were ovariectomized and were fed a vitamin D-deficient diet containing 0.45% calcium and 0.3% phosphorus. The rats were given 15IU of vitamin D3 orally once a week throughout this experiment. Four weeks after the surgery, the rats were orally adminstered three times a week for 23 weeks with ST-630 (30, 100 or 300 pmole/kg) or 1α-hydroxyvitamin D3 (100 or 300 pmole/kg).

[5] = compared with 1,25-(OH)2 D3; cited from earlier work
[6] = tested on: postmenopausal osteoporosis; details: average dose 0.8 μg per day, cited from earlier work
[7] = tested on: postmenopausal osteoporosis; details: cited from earlier work
[8] = especially with conventional calcium supplement treatment
[9] = dose response over the doses tested

C=C1/C(=C\C=C2/CCC[C@]3(C)[C@@H]([C@H](C)CCC(O)C(C)(C)O)CC[C@@H]23)C[C@@H](O)CC1O (stereo partly drawn) [1,24,25-trihydroxyvitamin D3]
hypercalcemia ([1]; in vivo): causing hypercalcemia

C=C1/C(=C\C=C2/CCC[C@]3(C)[C@@H]([C@H](C)/C=C/[C@@H](C)C(C)(C)O)CC[C@@H]23)C[C@@H](O)C[C@@H]1O [1α,25-dihydroxy-24-epi-vitamin D2]
intestinal calcium transport [2]: increasing intestinal calcium transport | mineralization of new bone [2]: stimulating the mineralization of new bone | mobilizing calcium from bone [2]: minimal effectiveness

C=C1/C(=C\C=C2/CCC[C@]3(C)[C@@H]([C@H](C)/C=C/[C@H](C)C(C)(C)O)CC[C@@H]23)C[C@@H](O)C[C@@H]1O [1α,25-dihydroxyvitamin D2]
hypercalcemia [1, 8]: causing hypercalcemia

C=C1/C(=C\C=C2/CCC[C@]3(C)[C@@H]([C@H](C)/C=C/[C@H](C)C(C)C)CC[C@@H]23)C[C@@H](O)C[C@@H]1O [1α-hydroxyvitamin D2]
hypercalcemia [1, 8]: causing hypercalcemia

C=C1/C(=C\C=C2/CCC[C@]3(C)[C@@H]([C@H](C)CCCC(C)C)CC[C@@H]23)C[C@@H](O)C[C@@H]1O [1α-hydroxyvitamin D3, reference compound]
LD50 at 336 h [3]: 0.2 mg/kg | safe dose used for human administration ([4]; humans): 1 µg/day | deaths (female beagle dogs): two of six dogs | Serum Pi (Ovariectomized rats; 100 pmole/kg p.o.): 3.8 ± 0.3 mg/100 ml | Breaking load (femur) (Ovariectomized rats; 100 pmole/kg p.o.): 9.3 ± 0.6 kg | Serum Ca (Ovariectomized rats; 100 pmole/kg p.o.): 9.9 ± 0.2 mg/100 ml | Ash weight (femur) (Ovariectomized rats; 100 pmole/kg p.o.): 303 ± 29 mg | Dry weight (femur) (Ovariectomized rats; 100 pmole/kg p.o.): 454 ± 42 mg | Serum Pi (Ovariectomized rats; 300 pmole/kg p.o.): 4.3 ± 0.4 mg/100 ml | Breaking load (femur) (Ovariectomized rats; 300 pmole/kg p.o.): 9.5 ± 1.1 kg | Serum Ca (Ovariectomized rats; 300 pmole/kg p.o.): 10.3 ± 0.3 mg/100 ml | Ash weight (femur) (Ovariectomized rats; 300 pmole/kg p.o.): 308 ± 33 mg | Dry weight (femur) (Ovariectomized rats; 300 pmole/kg p.o.): 461 ± 47 mg | serum calcium level (Ovariectomized rats; [9]): increased dose-dependently | serum phosphorus level (Ovariectomized rats; [9]): increased dose-dependently

C=C1/C(=C\C=C2/CCC[C@]3(C)[C@@H]([C@H](C)CCC(F)(F)C(C)(C)O)CC[C@@H]23)C[C@@H](O)C[C@@H]1O [24,24-difluoro-1,25-(OH)2 D3]
activity relative to 1,25-(OH)2 D3 [5]: at least as great if not greater activity

C=C1/C(=C\C=C2/CCC[C@]3(C)[C@@H]([C@H](C)CCCC(C)(C)O)CC[C@@H]23)C[C@@H](O)C[C@@H]1O [calcitriol, 1α,25-dihydroxyvitamin D3]
hypercalcemia [1, 8]: causing hypercalcemia | Hypercalciuria incidence [6]: all subjects | bone formation [6]: no effect on bone formation | bone resorption [6]: reducing bone resorption | calcium absorption [6]: increasing calcium absorption | hypercalcemia incidence [6]: 11 of 12 subjects | bone loss ([6]; women with postmenopausal osteoporosis): reduced bone loss | dosage "window" or tolerance between effectiveness and toxicity ([4]; in view of Oloia et al and Tilyard et al): relatively small | hypercalcemia ([7]; 0.5 μg per day (0.25 μg orally twice a day), average dietary calcium intake 800 mg): not accompanied by hypercalcemia of any severity; also recorded: limited potential to induce hypercalcemia | rate of new vertebral fractures ([7]; 0.5 μg per day for three years, versus supplemental calcium 1 gram daily): significant reduction

C=C1CC[C@H](O)C/C1=C/C=C1\CCC[C@]2(C)[C@@H]([C@H](C)CCCC(C)(C)O)CC[C@@H]12 [hydrate of 25-hydroxyvitamin D3, 25-hydroxyvitamin D3]
hypercalcemia [1, 8]: danger of hypercalcemia
